Measured values as given in the CheMixHub ionic liquid set.

Experiment: xn = mol fraction of the nth substance listed
Conditions: 101 kPa; for electrical conductivity: x2 = 0

CCCCCCCCCCCCOS(=O)(=O)[O-].[Na+] + Cc1ncc(C[n+]2csc(CCO)c2C)c(N)n1.Cl.[Cl-] + O
electrical conductivity [S/m]
Conditions	288.15 K	298.15 K	308.15 K	318.15 K
x1 = 7.35e-06	0.00102	0.00389	0.00521	0.0057
x1 = 1.463e-05	0.00278	0.00675	0.0087	0.00954
x1 = 2.184e-05	0.00515	0.00896	0.012	0.0133
x1 = 2.898e-05	0.00708	0.0117	0.0152	0.017
x1 = 3.604e-05	0.00931	0.0145	0.0186	0.0208
x1 = 4.303e-05	0.0116	0.0171	0.0219	0.0244
x1 = 4.997e-05	0.0139	0.0198	0.0251	0.0279
x1 = 5.683e-05	0.0162	0.0224	0.0283	0.0313
x1 = 6.362e-05	0.0186	0.0244	0.0315	0.0347
x1 = 7.036e-05	0.0202	0.027	0.0345	0.0381
x1 = 7.703e-05	0.0225	0.0296	0.0375	0.0414
x1 = 8.364e-05	0.0247	0.0321	0.0405	0.0448
x1 = 9.018e-05	0.0269	0.0347	0.0432	0.0481
x1 = 9.658e-05	0.0286	0.0371	0.0461	0.0513
x1 = 0.0001031	0.0307	0.0395	0.0491	0.0543
x1 = 0.0001094	0.0328	0.0419	0.0517	0.0573
x1 = 0.0001157	0.035	0.0442	0.0544	0.0602
x1 = 0.000122	0.037	0.0466	0.0568	0.0632
x1 = 0.0001281	0.039	0.0488	0.0602	0.0659
x1 = 0.0001342	0.0411	0.0509	0.0625	0.0687
x1 = 0.0001404	0.0425	0.0524	0.0647	0.0711
x1 = 0.0001465	0.0432	0.0543	0.0667	0.0734
x1 = 0.0001524	0.0444	0.0559	0.0685	0.0755
x1 = 0.0001584	0.0452	0.0571	0.0701	0.0774
x1 = 0.0001641	0.0462	0.0582	0.0716	0.079
x1 = 0.0001699	0.0469	0.0592	0.0729	0.0805
x1 = 0.0001757	0.0478	0.0601	0.0742	0.0819
x1 = 0.0001814	0.0487	0.0609	0.0753	0.0832
x1 = 0.000187	0.0495	0.0617	0.0764	0.0845
x1 = 0.0001928	0.0501	0.0626	0.0775	0.0857
x1 = 0.0001982	0.0507	0.0634	0.0785	0.0868
x1 = 0.0002038	0.0513	0.0641	0.0796	0.0879
x1 = 0.0002092	0.0517	0.0648	0.0805	0.089
x1 = 0.0002147	0.0521	0.0654	0.0815	0.0902
x1 = 0.00022	0.0527	0.066	0.0824	0.0912
x1 = 0.0002254	0.0532	0.0666	0.0834	0.0924
x1 = 0.0002306	0.0537	0.0673	0.0843	0.0936
x1 = 0.0002358	0.0542	0.068	0.0852	0.0946
x1 = 0.0002411	0.0548	0.0686	0.0861	0.0956
x1 = 0.0002463	0.0554	0.0693	0.087	0.0966

O=C1O[C@H]([C@@H](O)CO)C(O)=C1O + O + CCCC[N+](CCCC)(CCCC)CCCC.O=S(=O)([O-])O
viscosity [mPa·s]
Conditions	x1 = 0.0003639, x3 = 0	x1 = 0.0006573, x3 = 0	x1 = 0.0009524, x3 = 0	x1 = 0.001251, x3 = 0	x1 = 0.001553, x3 = 0	x1 = 0.001856, x3 = 0
298.15 K	0.899	0.904	0.91	0.916	0.922	0.927
308.15 K	0.724	0.728	0.732	0.738	0.743	0.748
318.15 K	0.6	0.604	0.608	0.612	0.616	0.621

CCCCCC(=O)[O-].C[NH2+]Cc1ccccc1 + CN(C)C=O
viscosity [mPa·s]
Conditions	293.15 K	298.15 K	303.15 K	308.15 K	313.15 K	318.15 K	323.15 K	328.15 K
x1 = 0.004888	0.957	0.916	0.879	0.846	0.817	0.791	0.767	0.746
x1 = 0.008422	0.969	0.926	0.887	0.854	0.824	0.797	0.772	0.75
x1 = 0.0141	0.992	0.946	0.905	0.869	0.837	0.809	0.784	0.76
x1 = 0.01792	1.009	0.961	0.918	0.881	0.847	0.818	0.791	0.767
x1 = 0.02131	1.026	0.975	0.93	0.891	0.857	0.826	0.798	0.773
x1 = 0.02717	1.052	0.998	0.95	0.909	0.873	0.84	0.812	0.786
x1 = 0.03049	1.072	1.016	0.966	0.923	0.884	0.85	0.82	0.793
x1 = 0.03458	1.099	1.038	0.985	0.94	0.899	0.863	0.831	0.803
